“And” between values parts separate entries of the source, which are not always exact repeats. Equal entries are not always repeated. Where two headings read alike, the source gives them in different places. Each block holds one compound with its values, some of them ahead of it.
Legend:
DPP IV = DPP IV (Homo sapiens, UniProt P27487); test: In vitro DPP IV enzyme inhibition assay; inhibitors incubated at pH 2 or pH 8, then added to enzyme assay solution at pH 8.0; format: biochemical
Description: Inhibitors were incubated overnight in pH 2 or pH 8 solutions and then added directly to an enzyme assay solution at pH 8.0.
It is important to note that the x-axis in FIG. 3 refers to the concentration of the SPI, not the concentration of the released Xaa-boroPro.

male Sprague-Dawley rats = test: Example 10: clinical signs and mortality after single oral administration in male rats; details: for Clinical Observation: one line per animal, wrapped cell 'Redness of ears' continues 'and paws';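 on all read-outs here: test articles given by mouth, formulated in deionized Type I water as vehicle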
[1] = pH 2, ten minutes, read-out: IC50 Values at Ten Minutes pH 2
[2] = pH 8, ten minutes, read-out: IC50 Values at Ten Minutes pH 8
[3] = pH 2, read-out: Tetrapeptide Prodrugs (IC50) pH 2
[4] = pH 8, read-out: Tetrapeptide Prodrugs (IC50) pH 8
[5] = 2.5 mg/kg ALA-PRO boronic dose equivalents
[6] = 10.0 mg/kg ALA-PRO boronic dose equivalents

Sequence of DPP IV (P27487 whole entry, species assumed): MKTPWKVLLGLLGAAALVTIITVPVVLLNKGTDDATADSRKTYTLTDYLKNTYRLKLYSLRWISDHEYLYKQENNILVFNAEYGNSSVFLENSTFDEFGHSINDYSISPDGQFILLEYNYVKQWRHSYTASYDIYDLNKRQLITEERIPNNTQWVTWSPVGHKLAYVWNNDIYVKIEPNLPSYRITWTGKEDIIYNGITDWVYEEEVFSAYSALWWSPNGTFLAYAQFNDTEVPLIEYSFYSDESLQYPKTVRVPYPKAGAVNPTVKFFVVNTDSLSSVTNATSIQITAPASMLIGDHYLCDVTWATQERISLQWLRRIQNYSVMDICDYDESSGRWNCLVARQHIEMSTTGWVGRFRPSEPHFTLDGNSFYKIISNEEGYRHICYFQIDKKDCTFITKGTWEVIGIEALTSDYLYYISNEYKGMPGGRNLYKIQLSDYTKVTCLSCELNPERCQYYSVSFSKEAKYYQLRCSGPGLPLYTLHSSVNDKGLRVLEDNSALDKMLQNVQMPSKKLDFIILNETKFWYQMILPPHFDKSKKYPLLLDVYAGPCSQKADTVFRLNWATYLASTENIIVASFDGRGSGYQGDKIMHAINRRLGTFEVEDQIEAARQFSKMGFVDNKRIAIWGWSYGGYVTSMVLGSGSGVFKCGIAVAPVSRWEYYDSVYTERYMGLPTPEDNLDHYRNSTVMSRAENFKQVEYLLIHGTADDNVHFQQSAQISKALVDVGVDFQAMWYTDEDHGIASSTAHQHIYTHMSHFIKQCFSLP

Compound: CC(C)C(NC(=O)C1CCCN1C(=O)CN)C(=O)N1CCCC1B(O)O (centres unmarked) [GlyProValboroPro]
IC50 (DPP IV; [3]): 17 nM
IC50 (DPP IV; [1]): 17 nM
IC50 (DPP IV; [4]): 46 nM
IC50 (DPP IV; [2]): 46 nM

Compound: CC(NC(=O)C(N)C1CCCCC1)C(=O)NC(C(=O)N1CCCC1B(O)O)C(C)C (centres unmarked) [ChgAlaValboroPro]
IC50 (DPP IV; [3]): 190 nM
IC50 (DPP IV; [1]): 190 nM
IC50 (DPP IV; [4]): 360 nM
IC50 (DPP IV; [2]): 360 nM

Compound: CCC(NC(=O)C(C)NC(=O)C(N)C1CCCCC1)C(=O)N1CCCC1B(O)O (centres unmarked) [ChgAlaEtgboroPro]
IC50 (DPP IV; [1]): 600 nM
IC50 (DPP IV; [2]): 802 nM

Compound: CC(C)(C)[C@H](NC(=O)[C@@H]1CCCN1C(=O)[C@@H](N)C1CCCCC1)C(=O)N1CCC[C@H]1B(O)O [ChgProBugboroPro]
IC50 (DPP IV; [1]): 1500 nM
IC50 (DPP IV; [2]): 8000 nM

Compound: CC(N)C(=O)N1CCCC1C(=O)NC(C(=O)N1CCCC1B(O)O)C(C)C (centres unmarked) [AlaProValboroPro]
IC50 (DPP IV; [3]): 20 nM
IC50 (DPP IV; [1]): 20 nM
IC50 (DPP IV; [4]): 21 nM
IC50 (DPP IV; [2]): 21 nM

Compound: CC(NC(=O)C(C)(C)N)C(=O)NC(C(=O)N1CCCC1B(O)O)C(C)C (centres unmarked) [AibAlaValboroPro]
IC50 (DPP IV; [1]): 2000 nM

Compound: NCC(=O)N1CCCC1C(=O)N1CCCC1C(=O)N1CCCC1B(O)O (centres unmarked) [GlyProProboroPro]
IC50 (DPP IV; [3]): 9000 nM
IC50 (DPP IV; [1]): 8600 nM
IC50 (DPP IV; [2]): 20000 nM

Compound: CC(N)C(=O)NC(C)C(=O)NC(C(=O)N1CCCC1B(O)O)C(C)C (centres unmarked) [AlaAlaValboroPro]
IC50 (DPP IV; [1]): 2000 nM
IC50 (DPP IV; [2]): 25000 nM

Compound: CNC(Cc1ccccc1)C(=O)N1CCCC1C(=O)NC(C)C(=O)N1CCCC1B(O)O (centres unmarked) [N—Me-PheProAlaboroPro, N-Me-Phe-PRO-ALA-PRO Boronic Acid]
IC50 (DPP IV; [1]): 2000 nM
IC50 (DPP IV; [2]): 2700 nM
Clinical Observation (male Sprague-Dawley rats; 0.5 mg/kg ALA-PRO boronic dose equivalents): None
Approximate Onset of Observation (Time post-dose) (male Sprague-Dawley rats; [5]): ~2 h
Clinical Observation (male Sprague-Dawley rats; [5]): Redness of ears and None (2×)
Approximate Onset of Observation (Time post-dose) (male Sprague-Dawley rats; [6]): ~4 h
Clinical Observation (male Sprague-Dawley rats; [6]): None (2×) and Redness of ears

Stronger by IC50 (DPP IV; [1]), values ahead:

IC50 (DPP IV; [1]): 14 nM
IC50 (DPP IV; [2]): 18 nM
Compound: CC(NC(=O)C1CCCN1C(=O)C(N)C(C)(C)C)C(=O)N1CCCC1B(O)O (centres unmarked) [tBugProAlaboroPro]

IC50 (DPP IV; [1]): 12 nM
IC50 (DPP IV; [2]): 14 nM
Compound: CCC(NC(=O)C1CCCN1C(=O)C(N)C1CCCCC1)C(=O)N1CCCC1B(O)O (centres unmarked) [ChgProEtgboroPro]

IC50 (DPP IV; [1]): 15 nM
IC50 (DPP IV; [2]): 17 nM
Compound: CC(NC(=O)C1CCCN1C(=O)C(N)Cc1ccc(O)cc1)C(=O)N1CCCC1B(O)O (centres unmarked) [TyrProAlaboroPro, Tyrosine-Proline-Alanine-Proline Boronic Acid]

IC50 (DPP IV; [1]): 15 nM
IC50 (DPP IV; [2]): 17 nM
Compound: ChgDhpEtgboroPro

IC50 (DPP IV; [1]): 6 nM
IC50 (DPP IV; [2]): 8 nM
Compound: CC(NC(=O)C1CCCN1C(=O)C(N)Cc1ccccc1)C(=O)N1CCCC1B(O)O (centres unmarked) [PheProAlaboroPro, Phenylalanine-Proline-Alanine-Proline Boronic Acid]

IC50 (DPP IV; [1]): 14 nM
IC50 (DPP IV; [2]): 14 nM
Compound: NC(C(=O)N1CCCC1C(=O)NC(C(=O)N1CCCC1B(O)O)C1CCCCC1)C1CCCCC1 (centres unmarked) [ChgProChgboroPro]

— patent publication US9629921B2, “Smart pro-drugs of serine protease inhibitors” (Trustees of Tufts College, priority 2002, dated 2017)
